Literature values, collected in patent US10092644B2, “Use of fluorinated cyclic dinucleotides as oral vaccine adjuvants” (BROCK UNIVERSITY, priority 2013, dated 2018).

Tested on: S. penuemoniae pneumolysin toxid (PdB) or pneumococal surface protection (PspA)
Conditions: mice, interperitoneally, PdB or PspA adjuvanted with c-di-GMP (Chen et al. 2010; Ogunniyi et al. 2008); cited from earlier work

Nc1nc2c(ncn2C2OC3COP(=O)(O)OC4C(COP(=O)(O)OC3C2O)OC(n2cnc3c(=O)[nH]c(N)nc32)C4O)c(=O)[nH]1 (stereo not shown) [c-di-GMP, 3′,5′-cyclic diguanylic acid]
antigen-specific antibody response: enhanced
